Test results as given in patent publication US11667630B2, “Nitrogen-containing 6-membered cyclic compound” (Asahi Kasei Pharma Corporation, priority 2017, dated 2023).

How the values were obtained:
rat femur = assay: Neo-osteogenesis action in rat femur; assay type: in vivo; conditions: female SD rats, one week after administration; for Bone mineral content of femur 1/3 center region (mg) Left femur (administered with compound): 100 μg test compound in in situ-solidified gel solution injected between quadriceps and periosteum; for Bone mineral content of femur 1/3 center region (mg) Right femur (no administration of compound): contralateral femur, 100 μg test compound given at left femur
Description: Eight weeks old female SD rats (Charles River Japan) were fixed in the side lying position under triple anesthesia (medetomidine hydrochloride, midazolam, and butorphanol tartrate). After hair of the left femoral region was shaved with a hair clipper, and disinfection treatment was performed with 70% ethanol, an in situ-solidified gel solution of a test compound, specifically, a test compound dissolved in poly(lactic-co-glycolic acid) (RESOMER RG502H, produced by Evonik Industries)/poly(lactic-co-glycolic acid)-polyethylene glycol block copolymer (5050 DLG mPEG 5000, produced by Lakeshore Biomaterials)/N-methyl-2-pyrroridone (produced by Wako) (weight ratio 47%/3%/50%), was filled in a 1-mL syringe, a 21G injection needle was attached to the syringe, and the needle was transdermally stabbed from the quadriceps to the periosteum near the center of the femoral diaphyseal. Then, 100 μg as the amount of the test compound, or 50 μL as the administration volume of the solution was injected between the quadriceps and the periosteum, and the injection needle was drawn out. To the rats of the control group, the aforementioned in situ-solidified gel solution alone was administered. One week after the administration of the drug solution, the triple anesthesia was given to the animals, and they were fixed in the supine position, and euthanized by bleeding. […], circumferential tissues such as muscles were removed, the bone mineral content of the whole femur was measured by using a bone mineral analyzer DCS-600EX (produced by ALOKA), then it was divided into three portions along the long axis, and the bone mineral content of the center part (diaphysis) was evaluated. The test was performed with the groups each consisting of 6 animals.

human EP4 receptor = human EP4 receptor (Homo sapiens, UniProt P35408); assay: Measurement of EP4 agonist activity (cAMP production); assay type: cell-based; design: expressed in transfected cells; host or cells: HEK293; conditions: cAMP production in HEK293 cells stably expressing human EP4 receptor; average values where measured two or more times
Description: In order to investigate EP4 receptor agonist activity of the compounds of the present invention, production of cAMP was measured in HEK293 cells that were made to stably express the human EP4 receptor.
By using Refseq Database, prostaglandin E receptor was searched for. As a result, gene information of human EP4 (NM_000958) receptor was obtained. On the basis of this sequence information, the human EP4 receptor gene was cloned by PCR in a conventional manner using human cDNA as the template, and HEK293 cells that were made to stably express the human EP4 receptor were established. When cryopreserved cells of this strain were thawed and used, cells subcultured three times or more within a certain period of time (about 1 to 2 weeks) by using Dulbecco's Modified Eagle's Medium (Dulbecco's Modified Eagle's Medium may be henceforth abbreviated as DMEM) containing 10% FBS, 50 units each of penicillin and streptomycin were used. The subcultured cells were inoculated in wells of a poly-D-lysine-coated 96-well plate at a density of 2×10^4 to 2.5×10^4 cells/well, and cultured for one day. The medium in the wells was removed by suction, then DMEM (80 μL) was added to each well, and incubation was performed at 37° C. for 15 minutes. […] The reaction was allowed at 37° C. for 30 minutes, then the medium was removed by suction, Assay/Lysis Buffer (100 μL) contained in cAMP Screen Kit (produced by Applied Biosystems) was added to terminate the reaction. Then, the reaction mixture was incubated at 37° C. for 30 minutes to prepare a sample for quantification of cAMP, and the amount of cAMP in the sample was quantified according to the method indicated in cAMP Screen Kit. By non-linear regression of the compound concentration and the amount of cAMP, the concentration of the compound required for increasing cAMP to 50% of the maximum increase (EC50 value) was calculated by using the Kaleida Graph.

Sequence of human EP4 receptor (P35408 whole entry): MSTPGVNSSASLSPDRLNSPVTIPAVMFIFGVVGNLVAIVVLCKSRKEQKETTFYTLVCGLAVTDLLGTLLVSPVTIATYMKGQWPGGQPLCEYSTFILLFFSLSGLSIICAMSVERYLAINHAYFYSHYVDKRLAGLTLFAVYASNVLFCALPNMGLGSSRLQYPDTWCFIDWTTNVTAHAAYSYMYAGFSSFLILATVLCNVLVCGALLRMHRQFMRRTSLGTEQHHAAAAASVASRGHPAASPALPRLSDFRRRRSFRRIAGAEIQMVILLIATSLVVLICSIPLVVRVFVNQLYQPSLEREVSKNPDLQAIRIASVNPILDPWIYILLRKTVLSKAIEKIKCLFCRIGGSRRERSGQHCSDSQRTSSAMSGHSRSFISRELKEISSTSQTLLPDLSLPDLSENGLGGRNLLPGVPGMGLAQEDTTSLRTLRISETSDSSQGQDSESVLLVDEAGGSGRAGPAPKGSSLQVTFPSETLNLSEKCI

EC50 (human EP4 receptor) [nM] | SMILES | Bone mineral content of femur 1/3 center region (mg) Left femur (administered with compound) (rat femur) [mg] | Bone mineral content of femur 1/3 center region (mg) Right femur (no administration of compound) (rat femur) [mg]
0.13 | O=C(O)c1ccc(CCN2C(=O)SCCN2CCC(O)Cc2cccc(C#Cc3cccs3)c2)s1 (centres unmarked) [Example 3, 5-(2-(4-(3-Hydroxy-4-(3-(thiophen-2-ylethynyl)phenyl)butyl)-2-oxo-1,3,4-thiadiazinan-3-yl)ethyl)thiophene-2-carboxylic acid] | 80.2 ± 2.6 | 66.7 ± 2.7
0.34 | O=C(O)c1ccc(CCN2C(=O)SCCN2CCC(O)Cc2cccc(C#Cc3nccs3)c2)s1 (centres unmarked) [Example 13, 5-(2-(4-(3-Hydroxy-4-(3-(thiazol-2-ylethynyl)phenyl)butyl)-2-oxo-1,3,4-thiadiazinan-3-yl)ethyl)thiophene-2-carboxylic acid] | 82.0 ± 3.4 | 65.5 ± 2.7
0.045 | O=C(O)c1ccc(CCN2C(=O)SCCN2CCC(O)Cc2cccc(C#Cc3ccsc3)c2)s1 (centres unmarked) [Example 1, 5-(2-(4-(3-Hydroxy-4-(3-(thiophen-3-ylethynyl)phenyl)butyl)-2-oxo-1,3,4-thiadiazinan-3-yl)ethyl)thiophene-2-carboxylic acid] |  | 
0.3 | N#Cc1ccsc1C#Cc1cccc(CC(O)CCN2CCSC(=O)N2CCc2ccc(C(=O)O)s2)c1 (centres unmarked) [Example 14, 5-(2-(4-(4-(3-((3-Cyanothiophen-2-yl)ethynyl)phenyl)-3-hydroxybutyl)-2-oxo-1,3,4-thiadiazinan-3-yl)ethyl)thiophene-2-carboxylic acid] |  | 
0.09 | O=C(O)c1ccc(CCN2C(=O)SCCN2CCC(O)Cc2cccc(C#Cc3cscn3)c2)s1 (centres unmarked) [Example 9, 5-(2-(4-(3-Hydroxy-4-(3-(thiazol-4-ylethynyl)phenyl)butyl)-2-oxo-1,3,4-thiadiazinan-3-yl)ethyl)thiophene-2-carboxylic acid] |  | 
0.56 | Cc1cc(C#Cc2cccc(CC(O)CCN3CCSC(=O)N3CCc3ccc(C(=O)O)s3)c2)cs1 (centres unmarked) [Example 6, 5-(2-(4-(3-Hydroxy-4-(3-((5-methylthiophen-3-yl)ethynyl)phenyl)butyl)-2-oxo-1,3,4-thiadiazinan-3-yl)ethyl)thiophene-2-carboxylic acid] | 81.3 ± 3.6 | 64.7 ± 2.4
0.09 | O=C(O)c1ccc(CCN2C(=O)SCCN2CCC(O)Cc2cccc(C#Cc3ccco3)c2)s1 (centres unmarked) [Example 11, 5-(2-(4-(4-(3-(Furan-2-ylethynyl)phenyl)-3-hydroxybutyl)-2-oxo-1,3,4-thiadiazinan-3-yl)ethyl)thiophene-2-carboxylic acid] |  | 

Second part, the molecule before the results:

SMILES | EC50 (human EP4 receptor) [nM] | Bone mineral content of femur 1/3 center region (mg) Left femur (administered with compound) (rat femur) [mg] | Bone mineral content of femur 1/3 center region (mg) Right femur (no administration of compound) (rat femur) [mg]
N#Cc1sccc1C#Cc1cccc(CC(O)CCN2CCSC(=O)N2CCc2ccc(C(=O)O)s2)c1 (centres unmarked) [Example 8, 5-(2-(4-(4-(3-((2-Cyanothiophen-3-yl)ethynyl)phenyl)-3-hydroxybutyl)-2-oxo-1,3,4-thiadiazinan-3-yl)ethyl)thiophene-2-carboxylic acid] |  | 98.7 ± 4.1 | 
O=C(O)c1ccc(CCN2C(=O)SCCN2CCC(O)Cc2ccc(F)c(C#Cc3ccsc3)c2)s1 (centres unmarked) [Example 20, 5-(2-(4-(4-(4-Fluoro-3-(thiophen-3-ylethynyl)phenyl)-3-hydroxybutyl)-2-oxo-1,3,4-thiadiazinan-3-yl)ethyl)thiophene-2-carboxylic acid] | 0.07 | 79.4 ± 5.2 | 58.7 ± 3.6
O=C(O)c1ccc(CCN2C(=O)SCCN2CCC(O)Cc2cccc(C#Cc3ccoc3)c2)s1 (centres unmarked) [Example 10, 5-(2-(4-(4-(3-(Furan-3-ylethynyl)phenyl)-3-hydroxybutyl)-2-oxo-1,3,4-thiadiazinan-3-yl)ethyl)thiophene-2-carboxylic acid] | 0.065 | 78.0 ± 1.5 | 61.1 ± 0.5
O=C(O)c1ccc(CCN2C(=O)SCCN2CCC(O)Cc2cc(C#Cc3ccsc3)cs2)s1 (centres unmarked) [Example 22, 5-(2-(4-(3-Hydroxy-4-(4-(thiophen-3-ylethynyl)thiophen-2-yl)butyl)-2-oxo-1,3,4-thiadiazinan-3-yl)ethyl)thiophene-2-carboxylic acid] | 0.055 | 79.5 ± 1.9 | 60.3 ± 2.7
N#Cc1sccc1C#Cc1cccc(C[C@H](O)CCN2CCSC(=O)N2CCc2ccc(C(=O)O)s2)c1 [Example 24, (S)-5-(2-(4-(4-(3-((2-Cyanothiophen-3-yl)ethynyl)phenyl)-3-hydroxybutyl)-2-oxo-1,3,4-thiadiazinan-3-yl)ethyl)thiophene-2-carboxylic acid] |  | 80.7 ± 4.0 | 
Cc1cc(C#Cc2ccsc2)cc(CC(O)CCN2CCSC(=O)N2CCc2ccc(C(=O)O)s2)c1 (centres unmarked) [Example 19, 5-(2-(4-(3-Hydroxy-4-(3-methyl-5-(thiophen-3-ylethynyl)phenyl)butyl)-2-oxo-1,3,4-thiadiazinan-3-yl)ethyl)thiophene-2-carboxylic acid] | 0.1 | 85.8 ± 2.3 | 59.6 ± 1.4
O=C(O)c1cc(Cl)c(CCN2C(=O)SCCN2CCC(O)Cc2cccc(C#Cc3ccsc3)c2)s1 (centres unmarked) [Example 17, 4-Chloro-5-(2-(4-(3-hydroxy-4-(3-(thiophen-3-ylethynyl)phenyl)butyl)-2-oxo-1,3,4-thiadiazinan-3-yl)ethyl)thiophene-2-carboxylic acid] | 0.026 |  | 
O=C(O)c1ccc(CCN2C(=O)SCCN2CCC(O)Cc2cccc(Br)c2)cc1 (centres unmarked) [Comparative Example 1, 4-(2-(4-(4-(3-Bromophenyl)-3-hydroxybutyl)-2-oxo-1,3,4-thiadiazinan-3-yl)ethyl)benzoic acid, reference compound] | 2.5 |  | 
